Laboratory results from patent publication US20240158446A1, “CYCLIC COMPOUND HAVING SELECTIVE INHIBITORY ACTION ON KRAS OVER HRAS AND NRAS” (CHUGAI SEIYAKU KABUSHIKI KAISHA, priority 2021, published 2024).
Where two headings read alike, the source gives them in different places. Where a SMILES comes first, the peptide text is derived from it. Bridges are numbered along the chain shown (N, C = ends). [ ]: non-standard residue; d: D form. The star is where a group is joined. hPhe(3-Cl-4-CF3) = N[C@@H](CCc1ccc(C(F)(F)F)c(Cl)c1)C(=O)O; NPrPhe(4-CF3) = CCCN[C@@H](Cc1ccc(C(F)(F)F)cc1)C(=O)O; Morpholine(3S-CO) = O=C(O)[C@@H]1COCCN1; NMeGly(cPent) = CN[C@H](C(=O)O)C1CCCC1; NMeD = CN[C@@H](CC(=O)O)C(=O)O; NMeL = CN[C@@H](CC(C)C)C(=O)O; Morpholide = C1CN(*)CCO1; Ac5c = NC1(C(=O)O)CCCC1; Aze = O=C(O)[C@@H]1CCN1; Sar = CNCC(=O)O

Columns and labels:
[1] = target: GDP-bound NRAS wild-type protein (Homo sapiens, UniProt P01111); assay: Binding to NRAS by surface plasmon resonance (SPR), Single Cycle Kinetics; conditions: for NRAS/KRAS (ratio of KD value for NRAS to KD value for KRAS) / NRAS/KRAS (ratio of KD value with respect to NRAS to KD value with respect to KRAS): GDP-bound NRAS wild-type protein vs GDP-bound KRAS wild-type protein; for NRAS/KRAS (ratio of KD value with respect to GDP-bound NRAS wild-type protein to KD value with respect to KRAS): SPR KD ratio NRAS/KRAS, class symbols
[2] = target: GDP-bound HRAS wild-type protein (Homo sapiens, UniProt P01112); assay: Binding to HRAS by surface plasmon resonance (SPR), Single Cycle Kinetics; conditions: for HRAS/KRAS (ratio of KD value for HRAS to KD value for KRAS) / HRAS/KRAS (ratio of KD value with respect to HRAS to KD value with respect to KRAS): GDP-bound HRAS wild-type protein vs GDP-bound KRAS wild-type protein; for HRAS/KRAS (ratio of KD value with respect to GDP-bound HRAS wild-type protein to KD value with respect to KRAS): SPR KD ratio HRAS/KRAS, class symbols
[3] = test system: human lung cancer strain NCI-H441;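 also: cell proliferation inhibition after four days measured by CellTiter-Glo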

Sequence of GDP-bound NRAS wild-type protein (P01111 whole entry): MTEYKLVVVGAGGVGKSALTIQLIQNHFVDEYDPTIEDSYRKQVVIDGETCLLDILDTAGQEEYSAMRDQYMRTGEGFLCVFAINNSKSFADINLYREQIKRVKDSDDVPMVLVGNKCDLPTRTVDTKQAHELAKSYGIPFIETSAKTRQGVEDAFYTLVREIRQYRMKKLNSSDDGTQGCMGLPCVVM
Sequence of GDP-bound HRAS wild-type protein (P01112 whole entry): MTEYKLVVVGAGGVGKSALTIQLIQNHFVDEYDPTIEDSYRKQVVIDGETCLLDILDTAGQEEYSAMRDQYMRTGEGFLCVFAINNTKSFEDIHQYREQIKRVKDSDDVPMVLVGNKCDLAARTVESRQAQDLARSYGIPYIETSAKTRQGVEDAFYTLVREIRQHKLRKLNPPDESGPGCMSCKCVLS

SMILES: CCO[C@@H]1C[C@H]2C(=O)NC3(CCC3)C(=O)N(C)[C@@H](C3CCCC3)C(=O)N(C)[C@H](C(=O)N(C)C)CC(=O)N(C)[C@@H](CC)C(=O)N[C@@H]([C@@H](C)CC)C(=O)N(C)CC(=O)N(C)[C@H]3CCCCN(C3=O)[C@@H](Cc3ccc(C(F)(F)F)cc3)C(=O)N(C)CC(=O)N[C@@H](CCc3ccc4ccsc4c3)C(=O)N2C1 [PP0888]
- NRAS/KRAS (ratio of KD value for NRAS to KD value for KRAS) ([1]; SPR): C (A compound having a KD ratio of 0.1 or more and less than 3 is denoted as C)
- HRAS/KRAS (ratio of KD value for HRAS to KD value for KRAS) ([2]; SPR): B (a compound having 3 or more and less than 10 is denoted as B)
- IC50 [3]: 0.0256 µM

SMILES: CCC(CC)[C@H]1C(=O)N(C)[C@H](C(=O)N(C)C)CC(=O)N(C)[C@@H](COC)C(=O)N[C@@H]([C@@H](C)CC)C(=O)N(C)CC(=O)N(C)[C@H]2C/C=C\CCN(C2=O)[C@@H](Cc2ccc(C)cc2)C(=O)N(C)CC(=O)N[C@@H](CCc2ccc(Cl)c(Cl)c2)C(=O)N2C[C@H](OC3CCC3)C[C@H]2C(=O)N(C)C2(CC(C)(C)C2)C(=O)N1C [PP2816]
- NRAS/KRAS (ratio of KD value with respect to GDP-bound NRAS wild-type protein to KD value with respect to KRAS) [1]: AA (a compound having 20 or more is denoted as AA)
- HRAS/KRAS (ratio of KD value with respect to GDP-bound HRAS wild-type protein to KD value with respect to KRAS) [2]: A (a compound having 10 or more and less than 20 is denoted as A)
- IC50 [3]: 0.0228 µM

SMILES: CCCN1C(=O)CN(C)C(=O)[C@@H]2CCN2C(=O)[C@H]([C@@H](C)CC)NC(=O)[C@H](CC(C)C)N(C)C(=O)C[C@@H](C(=O)N2CCOCC2)N(C)C(=O)[C@H](C2CCCC2)N(C)C(=O)C2(CCCC2)NC(=O)[C@@H]2COCCN2C(=O)[C@H](CCc2ccc(C(F)(F)F)c(Cl)c2)NC(=O)CN(C)C(=O)[C@@H]1Cc1ccc(C(F)(F)F)cc1 [PP0313] ([NMeL]I[Aze][Sar][NPrPhe(4-CF3)][Sar][hPhe(3-Cl-4-CF3)][Morpholine(3S-CO)][Ac5c][NMeGly(cPent)][NMeD]-Morpholide; lactam N-11)
- NRAS/KRAS (ratio of KD value for NRAS to KD value for KRAS) ([1]; SPR): B (a compound having 3 or more and less than 10 is denoted as B)
- HRAS/KRAS (ratio of KD value for HRAS to KD value for KRAS) ([2]; SPR): C (A compound having a KD ratio of 0.1 or more and less than 3 is denoted as C)
- IC50 [3]: 0.0566 µM

SMILES: CC[C@H](C)[C@@H]1NC(=O)[C@H](CC(C)C)N(C)C(=O)C[C@@H](C(=O)N2CCOCC2)N(C)C(=O)[C@H](C2CCCC2)N(C)C(=O)C2(CCCC2)NC(=O)[C@@H]2CCCN2C(=O)[C@H](CCc2ccc(C(F)(F)F)c(Cl)c2)NC(=O)CN(C)C(=O)[C@H](Cc2ccc(Cl)cc2)N2CCCC[C@@H](C2=O)N(C)C(=O)CN(C)C1=O [PP0532]
- NRAS/KRAS (ratio of KD value with respect to NRAS to KD value with respect to KRAS) ([1]; SPR): C (A compound having a KD ratio of 0.1 or more and less than 3 is denoted as C)
- HRAS/KRAS (ratio of KD value with respect to HRAS to KD value with respect to KRAS) ([2]; SPR): B (a compound having 3 or more and less than 10 is denoted as B)
- IC50 [3]: 0.0069 µM

SMILES: CCO[C@@H]1C[C@H]2C(=O)N(C)C3(CC(C)(C)C3)C(=O)N(C)[C@@H](C3CCCC3)C(=O)N(C)[C@H](C(=O)N(C)C)CC(=O)N(C)[C@H]3CCCCCc4ccc(cc4)C[C@@H](C(=O)N(C)CC(=O)N[C@@H](CCc4ccc(C(F)(F)F)c(OC)c4)C(=O)N2C1)N1CC/C=C\C[C@@H](C1=O)N(C)C(=O)CN(C)C(=O)[C@H]([C@@H](C)CC)NC3=O [PP3091]
- NRAS/KRAS (ratio of KD value for NRAS to KD value for KRAS) ([1]; SPR): A (a compound having 10 or more and less than 20 is denoted as A)
- ratio of the KD value with respect to GDP-bound NRAS wild-type protein to the KD value with respect to KRAS ([1]; SPR, KD(NRAS)/KD(KRAS)): A (a compound having 10 or more and less than 20 is denoted as A)
- HRAS/KRAS (ratio of KD value for HRAS to KD value for KRAS) ([2]; SPR): B (a compound having 3 or more and less than 10 is denoted as B)
- ratio of the KD value with respect to GDP-bound HRAS wild-type protein to the KD value with respect to KRAS ([2]; SPR, KD(HRAS)/KD(KRAS)): B (a compound having 3 or more and less than 10 is denoted as B)
- IC50 ([3]; read-out: NCI-H441 cell proliferation inhibitory activity, 50% proliferation inhibitory concentration (IC50 value), NCI-H441, four days, CellTiter-Glo): 0.0012 µM

SMILES: CCO[C@@H]1C[C@H]2C(=O)NC3(CCC3)C(=O)N(C)[C@@H](C3CCCC3)C(=O)N(C)[C@H](C(=O)N(C)C)CC(=O)N(C)[C@@H](CC3CCCC3)C(=O)N[C@@H]([C@@H](C)CC)C(=O)N(C)CC(=O)N(C)[C@H]3C/C=C\CCN(C3=O)[C@@H](Cc3ccc(C)cc3)C(=O)N(C)CC(=O)N[C@@H](CCc3ccc(C(F)(F)F)c(C4CC4)c3)C(=O)N2C1 [PP2681]
- NRAS/KRAS (ratio of KD value with respect to GDP-bound NRAS wild-type protein to KD value with respect to KRAS) [1]: A (a compound having 10 or more and less than 20 is denoted as A)
- HRAS/KRAS (ratio of KD value with respect to GDP-bound HRAS wild-type protein to KD value with respect to KRAS) [2]: A (a compound having 10 or more and less than 20 is denoted as A)
- IC50 [3]: 0.0291 µM

SMILES: CC[C@H](C)[C@@H]1NC(=O)[C@H](CC(C)C)N(C)C(=O)C[C@@H](C(=O)N2CCOCC2)N(C)C(=O)[C@H](C2CCCC2)N(C)C(=O)C2(CCCC2)NC(=O)[C@@H]2CCCN2C(=O)[C@H](CCc2ccc(C(F)(F)F)c(Cl)c2)NC(=O)CN(C)C(=O)[C@H](Cc2ccccc2)N2CCCCC[C@@H](C2=O)N(C)C(=O)CN(C)C1=O [PP0611]
- NRAS/KRAS (ratio of KD value with respect to NRAS to KD value with respect to KRAS) ([1]; SPR): B (a compound having 3 or more and less than 10 is denoted as B)
- HRAS/KRAS (ratio of KD value with respect to HRAS to KD value with respect to KRAS) ([2]; SPR): B (a compound having 3 or more and less than 10 is denoted as B)
- IC50 [3]: 0.0889 µM
